Results from patent US20100144868A1, “Novel Neuroprotective Compounds and Uses Thereof” (Ramot At Aviv University Ltd., priority 2005, published 2010).
“Also recorded” adds a separate entry of the source. Read-outs that look alike come from different tables or passages of the source. Marks after values point to notes of the source that are not given here.

Legend:
[1] = for Increase of maximal aqueous solubility: with a 10 fold increase in DMSO content
Experimental: 20 mg of each of the tested hybrid compounds of the present invention was dissolved in 0.2 ml of DMSO and then diluted with 200 ml, 40 ml, 20 ml and 10 ml of water to obtain a 0.1%, 0.5% 0.1% and 2.0% DMSO content in the aqueous solution, respectively. Each aqueous solution was sonicated for 2 minutes, filtered through 0.2 micron filter and centrifuged at 14,000 rpm for 3 minutes. UV-VIS spectra were obtained thereafter at 476 nm to determine the solubilized fraction of the tested hybrid compound.

[2] = tested on: MOG-induced EAE in NOD mice; experiment: Efficacy in MOG-induced EAE in NOD mice, daily treatment from day 20 to day 70; type: in vivo; conditions: for Severity of EAE (in words): compared to carboxyfullerene treated and vehicle (PBS) treated mice, Table 3, FIG. 3; for Phase II Second Peak Mean Score Disease / Phase III Third Peak Mean Score Disease / Phase IV Secondary Progressive Mean Score Disease: scale 0-5; for Cumulative Score: days 21-70; for Prevalence of Disease with score above 1.5: treated daily from day 20 after immunization to day 70; for Phase IV Secondary Progressive Mean Score Disease: day 70
Experimental: Non-obese diabetic (NOD) mice were purchased from Jackson laboratories. The mice were maintained in viral antibody-free (VAF) facility at Harvard Institutes of Medicine animal care facility and used at 10 weeks of age.
Myelin oligodendrocyte glycoprotein (MOG 35-55) was synthesized at the peptide/protein facility at the center for neurologic disease at BWH, Boston, Mass., USA.
(§1) Mice were immunized S.C. with 150 μg of MOG 35-55 peptide in […].
(§2) Pertussis toxin was given I.V. (150 ng per mouse) at the time of immunization and 48 hours later. The severity of disease was evaluated daily on the following scale: 0 for no clinical symptoms; 1 for distal tail weakness or tail atonia; 2 for impaired righting reflex and slight hind limb paralysis; 3 for complete paralysis affecting of both hind limbs; 4 for complete paralysis affecting of both hind limbs and fore limb weakness, or moribund state; and 5 for death.

[3] = tested on: MOG-induced EAE in NOD mice; experiment: Efficacy in MOG-induced EAE in NOD mice, Compound 20 at two doses compared to NBQX, daily from day 23; type: in vivo
Experimental: as §1, §2

[4] = tested on: spinal cord of EAE-induced NOD mice; experiment: Histological staining of spinal cord sections of EAE-induced NOD mice (Bielschowsky silver, Luxol fast blue); type: in vivo
Experimental: The attenuation of EAE progress in model animals was further tested by following pathological findings thereof in 7 μm coronal spinal cord section samples of the tested mice under cryogenic conditions. The axonal pathology analysis was performed on day 63 post-immunization by immunostaining of spinal cord sections. Spinal cord sections from mice were fixed in 4% paraformaldehyde overnight followed by 4.5% sucrose for 4 hours, then 20% sucrose for overnight at 4° C. Spinal cord sections were frozen and stored until used at −80° C.
Histological staining studies of spinal cord sections were preformed according to the Bielschowsky silver staining method, which specifically stains nerve fibers and axons so as to appear in black when observed under an optical microscope, and according to the Luxol fast blue staining method, which specifically stains myelin/myelinated axons so as to stain the myelin in blue-green while the neuron remains pink when observed under an optical microscope. Reduction in the degree of staining expresses damage to the neuron.
The Bielschowsky silver staining was performed as described before in Litchfield and Nagy, Acta Neuropathol (Berl) 2001, 101(1), pp. 17-21. Briefly, spinal cord sections were place in pre-warmed solution of 10% silver nitrate placed in a 40° C. oven and shaken for 15 minutes until sections became light brown in color, and thereafter rinsed in water. The spinal cord sections were thereafter placed back in the same ammonium silver solution and placed in a 40° C. oven for additional 30 minutes and rinse in water followed by dehydration in 95% ethyl alcohol, absolute alcohol and xylene.
The Luxol fast blue staining was perform as described before in Dolcetta et al J Neurosci Res.; 81(4):597-604. Briefly, spinal cord sections were placed in luxol fast blue solution in a 56° C. oven for 16 hours and rinsed with 95% ethyl alcohol and distilled water. Thereafter the spinal cord sections were placed in carbonate solution for 30 seconds and rinsed in water followed by dehydration in 95% ethyl alcohol, absolute alcohol and xylene. […]

[5] = 0.1% DMSO content in final aqueous solution
[6] = 0.5% DMSO content in final aqueous solution

| Compound | Increase of maximal aqueous solubility [1] | Maximal aqueous concentration [1, 5] | Maximal aqueous concentration [1, 6] | Severity of EAE (in words) [2] | Phase II Second Peak Mean Score Disease ([2]; day 26) | Phase II Second Peak Mean Score Disease ([2]; day 27) | Phase III Third Peak Mean Score Disease ([2]; day 31) | Phase III Third Peak Mean Score Disease ([2]; day 38) | Cumulative Score [2] | Prevalence of Disease with score above 1.5 [2] | Phase IV Secondary Progressive Mean Score Disease [2] | other results |
| --- | --- | --- | --- | --- | --- | --- | --- | --- | --- | --- | --- | --- |
| 2,2-fullerenyl-malonic acid bis(adamantan-1-ylcarbamate-diethyleneglycol) ester [Compound 16] | 20 fold |  |  |  |  |  |  |  |  |  |  |  |
| 2,2-fullerenyl-malonic acid bis(adamantan-1-ylcarbamate-poly(n)ethyleneglycol) ester wherein average n=10 [Compound 19] | 6 fold | 1.17 10^−5 M | 5.12 10^−5 M |  |  |  |  |  |  |  |  | Maximal aqueous concentration ([1]; 1.0% DMSO content in final aqueous solution): 6.97 10^−5 M |
| 2,2-fullerenyl-malonic acid bis(adamantan-1-ylcarbamate-poly(n)ethyleneglycol) ester wherein average n=10 [Compound 20] |  |  |  | clearly reduce the severity of relapsing-remitting EAE; also recorded: reduction in severity of the disease | 0.70* | 0.55* | 0.60* | 0.65* | 53.0* | 4/10 |  | Severity of the disease, mean disease score (in words) ([3]; 30 μg/Kg and 300 μg/Kg, compared to NBQX treated and untreated mice, FIG. 4): reduction in severity of the disease; Death ([3]; 30 μg/Kg daily from day 23): 0/14; Phase II Second Peak Mean Score Disease ([3]; 30 μg/Kg daily from day 23, day 37): 1.60*; Phase II Second Peak Mean Score Disease ([3]; 30 μg/Kg daily from day 23, day 41): 1.50*; Phase III Secondary Progressive Mean Score Disease ([3]; 30 μg/Kg daily from day 23, day 62): 2.12*; Phase III Secondary Progressive Mean Score Disease ([3]; 30 μg/Kg daily from day 23, day 63): 2.15*; Protection from progression of chronic EAE (in words) ([3]; 30 μg/Kg daily, compared to 300 μg/Kg): significantly protect progression of chronic EAE; Death ([3]; 300 μg/Kg daily from day 23): 2/14; Phase II Second Peak Mean Score Disease ([3]; 300 μg/Kg daily from day 23, day 37): 2.25; Phase II Second Peak Mean Score Disease ([3]; 300 μg/Kg daily from day 23, day 41): 2.25; Phase III Secondary Progressive Mean Score Disease ([3]; 300 μg/Kg daily from day 23, day 62): 3.08; Phase III Secondary Progressive Mean Score Disease ([3]; 300 μg/Kg daily from day 23, day 63): 3.17; Axonal density / axonal damage in white matter of spinal cord (in words) ([4]; Bielschowsky silver impregnation, day 63 post-immunization, compared to untreated control mice, FIG. 5): reduction of EAE-derived axonal damage; also recorded: lower reduction in axonal density; Demyelination of axons in white matter of spinal cord (in words) ([4]; Luxol fast blue staining, compared to untreated control mice, FIG. 6): reduction in demyelination of axons; Progression of chronic EAE as damage to neurons (in words) ([4]; treatment initiated after disease onset, FIGS. 5 and 6): lesser damage caused to the neurons |
| 2,2-fullerenyl-malonic acid bis(adamantan-1-ylcarbamate-tetraethyleneglycol) ester [Compound 6] | more than 2.6 fold | 1.18 10^−5 M | 1.38 10^−5 M | clearly reduce the severity of relapsing-remitting EAE; also recorded: reduction in severity of the disease | 0.75* | 0.80 | 0.90* | 1.30 | 90.6 | 9/10 | 2.85 | Maximal aqueous concentration ([1]; 2.0% DMSO content in final aqueous solution): 0.036 mg/mL |
| O=C(O)C1(C(=O)O)C2=C1C1C3C4=c5c6c7c8c(c9c(c%10c%11c%12c%13c%14c%15c%16c(c2c3c%16c5c%14c6c%12c%108)C=CC%152C(C(=O)O)(C(=O)O)C%132C=C%11)C9(C(=O)O)C(=O)O)C2C=CC1C4C72 (stereo not drawn) [Carboxyfullerene, C3-stereoisomer of trimalonic acid derivative of a C60 fullerene, reference compound] |  |  |  |  | 1.00 | 0.85 | 1.15 | 1.45 | 87.45 | 8/10 | 2.65 |  |
| NS(=O)(=O)c1cccc2c1c([N+](=O)[O-])cc1nc(O)c(O)nc12 [NBQX, 2,3-dihydroxy-6-nitro-7-sulfamoyl-benzo(f)quinoxaline, reference compound] |  |  |  |  |  |  |  |  |  |  |  | Death ([3]; 30 mg/Kg daily from day 23): 6/14; Phase II Second Peak Mean Score Disease ([3]; 30 mg/Kg daily from day 23, day 37): 1.75; Phase II Second Peak Mean Score Disease ([3]; 30 mg/Kg daily from day 23, day 41): 1.88; Phase III Secondary Progressive Mean Score Disease ([3]; 30 mg/Kg daily from day 23, day 62): 3.31; Phase III Secondary Progressive Mean Score Disease ([3]; 30 mg/Kg daily from day 23, day 63): 3.38; Suppression of the second phase of EAE (in words) ([3]; 30 mg/Kg, Table 4, FIG. 4): showed a tendency to suppress the second phase of EAE; Preventing the chronic disease progression (in words) ([3]; NBQX 30 mg/Kg compared to Compound 20 at 30 and 300 μg/Kg): not as effective as the Compound 20 |
